What was measured:
[1] = target: T1, recombinant Mst1 (Homo sapiens, UniProt Q13043); experiment: Inhibition of Mst1 kinase activity, ELISA of Mob1 substrate phosphorylation; assay type: biochemical; conditions: MST1 IC50, recombinant Mst1 11 nM; ATP 6.7 gIVI; GST-Mob1a substrate; 30° C. 15 min
T1 sequence (Q13043 1-487): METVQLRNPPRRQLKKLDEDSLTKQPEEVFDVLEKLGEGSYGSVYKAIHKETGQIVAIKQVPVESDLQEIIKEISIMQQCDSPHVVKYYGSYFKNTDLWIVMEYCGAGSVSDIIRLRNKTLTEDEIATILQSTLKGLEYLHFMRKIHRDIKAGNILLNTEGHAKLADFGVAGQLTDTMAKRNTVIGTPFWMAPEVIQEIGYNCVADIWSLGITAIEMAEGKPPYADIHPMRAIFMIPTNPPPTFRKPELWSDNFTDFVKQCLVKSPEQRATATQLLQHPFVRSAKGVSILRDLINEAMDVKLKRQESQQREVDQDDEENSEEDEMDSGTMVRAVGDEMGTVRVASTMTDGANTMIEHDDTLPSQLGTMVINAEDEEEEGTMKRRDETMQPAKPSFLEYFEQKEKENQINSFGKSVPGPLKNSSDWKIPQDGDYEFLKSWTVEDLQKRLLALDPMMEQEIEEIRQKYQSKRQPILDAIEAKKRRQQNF
Procedure: (§1) We adopt a specific ELISA (Enzyme-linked immunosorbent assay) assay for measuring the biochemical activity (FIG. 1).
(§2) Specific methods are as follows:
(§3) 1. The substrate was diluted with purified recombinant GST-Mobla 200 nM in coating buffer, added to 96-well plates (Nalge Nunc International, Denmark), coated for overnight at 4° C., washed nextday three times with rinsing solution;
(§4) a. A kinase reaction buffer;
(§5) c. compound (dissolved in DMSO, containing not more than 1% of the total volume of the reaction);
(§6) Control Group Containing No ATP or Kinase;
(§7) 3. The reaction solution was poured to terminate the kinase reaction, and washed 4 times with rinse solution, 5 minutes each wash;
(§8) 4. Add 200 μL, per well of the blocking solution, shaking for 1 hour at room temperature, washed 4 times with rinsing solution;
(§9) 7. Add TMB chromogenic solution (Biolegend, Cat.B200119, B200120). After the color reaction to a certain extent, add to each well 100 μL, of 2M H2SO4 to terminate the reaction;
(§10) 8. […] Each set of three parallel experiments, the negative control is a solution with a final concentration of 1% DMSO, the control is the reaction system containing no ATP. […] The reagents are as follows: Coating Buffer: 0.1M NaHCO 3, 0.033M Na2CO3, pH 9.5 Rinse solution: 0.05% Tween-20 in PBS Reaction buffer: 40 mM of Hepes-NaOH (pH 7.4), 10 mM of MgCl2, 1 mM of dithiothreitol (DTT), 1 mM of NaF, 1 mM of Na3VO4, 1 mM of β-glycerophosphate Blocking solution: 1% BSA dissolved in PBS Compound Inhibition of Kinase Activity

[2] = target: T2, recombinant MST2 (Homo sapiens, UniProt Q13188); experiment: Inhibition of Mst2 kinase activity, ELISA of Mob1 substrate phosphorylation; assay type: biochemical; conditions: MST2 IC50, 3.7 nM recombinant MST2; ATP 11.2 gIVI; GST-Mob1a substrate; 30° C. 15 min
T2 sequence (Q13188 1-491): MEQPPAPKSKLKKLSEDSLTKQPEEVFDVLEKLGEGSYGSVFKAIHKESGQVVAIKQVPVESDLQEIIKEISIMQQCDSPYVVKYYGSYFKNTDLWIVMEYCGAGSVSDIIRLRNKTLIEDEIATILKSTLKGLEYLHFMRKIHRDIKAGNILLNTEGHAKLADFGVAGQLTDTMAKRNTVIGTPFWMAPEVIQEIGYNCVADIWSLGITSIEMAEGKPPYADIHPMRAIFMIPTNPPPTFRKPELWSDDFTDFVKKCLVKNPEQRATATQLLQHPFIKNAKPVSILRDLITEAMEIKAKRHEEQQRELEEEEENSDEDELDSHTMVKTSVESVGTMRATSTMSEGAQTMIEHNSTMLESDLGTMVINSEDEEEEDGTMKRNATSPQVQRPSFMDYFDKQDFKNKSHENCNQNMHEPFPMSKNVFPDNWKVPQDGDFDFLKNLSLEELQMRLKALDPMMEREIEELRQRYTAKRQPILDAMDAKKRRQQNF
Procedure: as §1, §2, §3, §4, §5, §6, §7, §8, §9, §10

SMILES | IC50 [1] | IC50 [2]
CN1CCN(S(=O)(=O)c2ccc(Nc3ncc4c(n3)N(C)c3ccccc3C(=O)N4)cc2)CC1 [IA-2] | 2.38 µM | 14.8 µM
CN1CCN(S(=O)(=O)c2ccc(Nc3ncc4c(n3)N(C3CCCC3)c3ccccc3C(=O)N4)cc2)CC1 [IB-2] | > 30 µM | > 30 µM
O=C1Nc2cnc(Nc3ccc(S(=O)(=O)N4CCC(O)CC4)cc3)nc2N(C2CCCC2)c2ccccc21 [IB-3] | > 30 µM | > 30 µM
CN1C(=O)c2ccccc2N(C)c2nc(Nc3ccc(S(N)(=O)=O)cc3)ncc21 [IC-1] | 0.07 µM | 0.11 µM
CN1CCN(S(=O)(=O)c2ccc(Nc3ncc4c(n3)N(C)c3ccccc3C(=O)N4C)cc2)CC1 [IC-2] | 2.32 µM | 7.8 µM
CN1C(=O)c2ccccc2N(C)c2nc(Nc3ccc(S(=O)(=O)N4CCC(O)CC4)cc3)ncc21 [IC-3] | 0.67 µM | 0.52 µM
CSc1ccc(Nc2ncc3c(n2)N(C)c2ccccc2C(=O)N3C)cc1 [IC-6] | 1.91 µM | 1.8 µM
CN1C(=O)c2ccccc2N(C)c2nc(Nc3ccc(S(C)(=O)=O)cc3)ncc21 [IC-7] | 0.5 µM | 0.09 µM
CN1C(=O)c2ccccc2N(C)c2nc(Nc3ccc(S(=O)(=O)Oc4ccccc4)cc3)ncc21 [IC-8] | 13.5 µM | 0.2 µM
CN1C(=O)c2ccccc2N(C)c2nc(Nc3ccc(S(=O)(=O)NC4CC4)cc3)ncc21 [IC-9] | 0.18 µM | 2.33 µM
CN1C(=O)c2ccccc2N(C)c2nc(Nc3ccc(NS(C)(=O)=O)cc3)ncc21 [IC-10] | 0.24 µM | 0.08 µM
CCN1c2ccccc2C(=O)N(C)c2cnc(Nc3ccc(NS(C)(=O)=O)cc3)nc21 [ID-2] | 0.08 µM | 0.39 µM
CCN1c2ccccc2C(=O)N(C)c2cnc(Nc3cccc(S(N)(=O)=O)c3)nc21 [ID-3] | 8.65 µM | –
CC(C)N1c2ccccc2C(=O)N(C)c2cnc(Nc3cccc(S(N)(=O)=O)c3)nc21 [IE-2] | 15.8 µM | –
CC(C)N1c2ccccc2C(=O)N(C)c2cnc(Nc3ccc(NS(C)(=O)=O)cc3)nc21 [IE-3] | 2.72 µM | 8.21 µM
CN1C(=O)c2ccccc2N(C2CCCC2)c2nc(Nc3ccc(S(N)(=O)=O)cc3)ncc21 [IF-2] | 0.63 µM | 3.86 µM
CN1C(=O)c2ccccc2N(C2CCCC2)c2nc(Nc3ccc(S(=O)(=O)N4CCC(O)CC4)cc3)ncc21 [IF-3] | 2.44 µM | 15.7 µM
CN1CCN(S(=O)(=O)c2ccc(Nc3ncc4c(n3)N(C3CCCC3)c3ccccc3C(=O)N4C)cc2)CC1 [IF-4] | 6.46 µM | –
CCN1CCN(Cc2ccc(Nc3ncc4c(n3)N(C3CCCC3)c3ccccc3C(=O)N4C)cc2C(F)(F)F)CC1 [IF-6] | 9.76 µM | –
CN1C(=O)c2ccccc2Nc2nc(Nc3ccc(S(N)(=O)=O)cc3)ncc21 [IG-1] | 1.55 µM | 2.7 µM
CN1C(=O)c2ccccc2Nc2nc(Nc3ccc(NS(C)(=O)=O)cc3)ncc21 [IG-2] | 5.8 µM | 14.6 µM
Cc1ccc2c(c1)N(C)c1nc(Nc3ccc(S(C)(=O)=O)cc3)ncc1N(C)C2=O [IH-1] | 5.01 µM | 4.81 µM
Cc1cccc2c1N(C)c1nc(Nc3ccc(S(C)(=O)=O)cc3)ncc1N(C)C2=O [IH-2] | 0.89 µM | 1.68 µM
Cc1cccc2c1N(C)c1nc(Nc3ccc(S(N)(=O)=O)cc3)ncc1N(C)C2=O [IH-4] | 0.15 µM | 0.19 µM
Cc1ccc2c(c1)N(C)c1nc(Nc3ccc(S(N)(=O)=O)cc3)ncc1N(C)C2=O [IH-5] | 2.4 µM | 2.73 µM
CN1C(=O)c2ccc(F)cc2N(C)c2nc(Nc3ccc(S(N)(=O)=O)cc3)ncc21 [IH-7] | 3.12 µM | 2.49 µM
CN1C(=O)c2ccc(F)cc2N(C)c2nc(Nc3ccc(S(C)(=O)=O)cc3)ncc21 [IH-8] | 2.17 µM | 3.36 µM

SMILES | IC50 [1] | IC50 [2]
CN1C(=O)c2cc(Cl)ccc2N(C)c2nc(Nc3ccc(S(C)(=O)=O)cc3)ncc21 [IH-9] | 5.67 µM | 11.6 µM
CN1C(=O)c2cc(Cl)ccc2N(C)c2nc(Nc3ccc(S(N)(=O)=O)cc3)ncc21 [IH-10] | 5.93 µM | –
CN1C(=O)c2cccc(F)c2N(C)c2nc(Nc3ccc(S(N)(=O)=O)cc3)ncc21 [IH-11] | 0.23 µM | 0.44 µM
CN1C(=O)c2cccc(F)c2N(C)c2nc(Nc3ccc(S(C)(=O)=O)cc3)ncc21 [IH-12] | 1.66 µM | 1.94 µM
CN1C(=O)c2ccc(Cl)cc2N(C)c2nc(Nc3ccc(S(N)(=O)=O)cc3)ncc21 [IH-13] | 7.82 µM | 9.47 µM
CN1C(=O)c2ccc(Cl)cc2N(C)c2nc(Nc3ccc(S(C)(=O)=O)cc3)ncc21 [IH-14] | – | 22.5 µM
CN1C(=O)c2sccc2N(C)c2nc(Nc3cccc(S(N)(=O)=O)c3)ncc21 [II-2] | 2.71 µM | –
CSc1ccc(Nc2ncc3c(n2)N(C)c2ccsc2C(=O)N3C)cc1 [II-3] | 0.85 µM | 1.72 µM
CN1C(=O)c2sccc2N(C)c2nc(Nc3ccc(S(C)(=O)=O)cc3)ncc21 [II-4] | 0.17 µM | 0.22 µM
CN1C(=O)c2sccc2N(C)c2nc(Nc3ccc(S(=O)(=O)Oc4ccccc4)cc3)ncc21 [II-5] | 4.64 µM | 8.89 µM
CN1C(=O)c2sccc2N(C)c2nc(Nc3ccc(S(=O)(=O)NC4CC4)cc3)ncc21 [II-6] | 0.26 µM | 0.02 µM
CN1CCN(S(=O)(=O)c2ccc(Nc3ncc4c(n3)N(C)c3ccsc3C(=O)N4C)cc2)CC1 [II-7] | 1.1 µM | 0.15 µM
CN1C(=O)c2sccc2N(C)c2nc(Nc3ccc(S(=O)(=O)N4CCC(O)CC4)cc3)ncc21 [II-8] | 0.08 µM | 1.03 µM
CN1C(=O)c2sccc2N(C)c2nc(Nc3ccc(C(=O)O)cc3)ncc21 [II-10] | 1.02 µM | 1.97 µM
CN1C(=O)c2sccc2N(C)c2nc(Nc3ccc(O)cc3)ncc21 [II-12] | 0.57 µM | 0.22 µM
CN1C(=O)c2sccc2N(C)c2nc(Nc3ccc(C(N)=O)cc3)ncc21 [II-13] | 0.33 µM | 0.26 µM
CN1C(=O)c2sccc2N(C)c2nc(Nc3ccc(N4CCC(O)CC4)cc3)ncc21 [II-15] | 0.65 µM | 1.99 µM
CN1CCN(C(=O)c2ccc(Nc3ncc4c(n3)N(C)c3ccsc3C(=O)N4C)cc2)CC1 [II-17] | 0.61 µM | 2.51 µM
CN1C(=O)c2sccc2N(C)c2nc(Nc3ccc(NC(=O)CCl)cc3)ncc21 [II-18] | 3.34 µM | 13 µM
CN1C(=O)c2sccc2N(C)c2nc(Nc3ccc(NC(=O)CBr)cc3)ncc21 [II-19] | 3.03 µM | 12.6 µM
CN1CCC(n2cc(Nc3ncc4c(n3)N(C)c3ccsc3C(=O)N4C)cn2)CC1 [II-20] | 0.11 µM | 2.32 µM
CN1CCN(c2ccc(Nc3ncc4c(n3)N(C)c3ccsc3C(=O)N4C)cc2)CC1 [II-21] | 0.25 µM | 3.1 µM
C=CC(=O)Nc1ccc(Nc2ncc3c(n2)N(C)c2ccsc2C(=O)N3C)cc1 [II-23] | 0.77 µM | 4.76 µM
CN1CCN(C2CCN(C(=O)c3ccc(Nc4ncc5c(n4)N(C)c4ccsc4C(=O)N5C)cc3)CC2)CC1 [II-24] | 0.22 µM | 2.25 µM
CN1C(=O)c2sccc2N(C)c2nc(Nc3ccc(OC(=O)CCl)cc3)ncc21 [II-25] | 0.58 µM | 2.24 µM
CN1C(=O)c2sccc2N(C)c2nc(Nc3cc[nH]n3)ncc21 [II-27] | 3.44 µM | –
